The results in this text go back to patent US11440922B2, “Heterocyclylmethylidene derivatives and their use as modulators of mGluR5 receptors” (Recordati Industria Chimica e Farmaceutica S.p.A., priority 2017, dated 2022).

One data set addresses human mGluR5 receptor (Homo sapiens (Human), UniProt P41594). As to the kind of experiment: Radioligand binding assay at cloned human mGluR5 receptor subtype ([3H]MPEP). As to conditions: 4 nM [3H]MPEP, CHO T-REx h-mGluR5 cells, 60 min at 25° C.; read-out: mGlu5 Ki. An excerpt:
(§1) Cell lines stably transfected were generated using inducible expression vectors encoding human mGlu5 receptor using the Tetracycline-Regulated Expression system (T-REx™ system, Invitrogen, Life Technologies). Human mGluR5 open reading frame (ORF), comprehensive of the stop codon, were cloned into the pcDNA4/TO/myc-His™ A vector, carrying the TetO2. The insertion site was HindIII-PstI for mGluR5 receptors. The obtained constructs were then transfected into the T-REx CHO™ cell line using the FuGENE protocol (Roche); the CHO T-REx™ cell line stably expresses the Tet repressor (from the pcDNA6/TR plasmid) under the selection of blasticidin, 10 μg/ml. Stable clones were obtained selecting with zeocin 1 mg/ml and maintaining in ULTRA CHO medium (LONZA) supplemented with dialyzed FBS, zeocin, blasticidine, at 37° C., in an atmosphere of 5% CO2. The expression of h-mGluR5 receptors was de-repressed with 1 μg/ml tetracycline for 18 h before binding experimentation, while the expression of h-mGluR5 receptors was derepressed respectively with 3 ng/ml and 10 ng/ml tetracycline for 18 h before calcium fluorescence experimentation.
Radioligand Binding Assay at Cloned Human mGluR5 Receptor Subtype
Affinity at transmembrane glutamate metabotropic cloned human mGluR5 receptor was evaluated according to the methods of Anderson (Anderson et al., J Pharmacol. Exp. Ther., (2002), Vol. 303(3), pp. 1044-51), with some modifications. Human cloned mGluR5 was obtained by re-suspending CHO T-REx h-mGluR5 cells (50 μg/well) in 20 mM HEPES, 2 mM MgCl2, 2 mM CaCl2, pH 7.4, that then were incubated in a final volume of 1 ml for 60 min at 25° C. with 4 nM [^3H]MPEP in the absence or presence of competing drugs. Non-specific binding was determined in the presence of 10 μM MPEP. The incubation was stopped by addition of cold Tris buffer pH 7.4 and rapid filtration through 0.2% polyethyleneimine pretreated Filtermat 1204-401 (Perkin Elmer) filters. The filters were then washed with cold buffer and the radioactivity retained on the filters was counted by liquid scintillation spectrometry (Betaplate 1204 BS-Wallac).
The inhibition curves of the tested compounds at cloned mGluR5 subtypes were determined by nonlinear regression analysis using software Prism 4.0 (Graphpad, San Diego, Calif.). The IC50 values and pseudo-Hill slope coefficients were estimated by the program. The values for the inhibition constant, Ki, were calculated according to the equation Ki=IC50/(1+[L]/Kd), where [L] is the concentration of radioligand and Kd is the equilibrium dissociation constant of the radioligand-receptor complex (Cheng et al., Biochem. Pharmacol. (1973), Vol. 22, pp. 3099-3108).

Data set [1] deals with T1, human mGlu5 receptor (Homo sapiens (Human), UniProt P41594). The data set is described as follows: Calcium fluorescence measurements, potentiation of mGlu5 activation (positive allosteric modulator activity). The settings on record: EC20 of the agonist (quisqualate or glutamate), compounds applied 10 minutes before agonist. The data set is classed as cell-based.
Source text: as §1
(§2) Cells were seeded into black-walled, clear-bottom, 96-well plates at a density of 80000 cell/well, in RPMI (without Phenol Red, without L-glutamine; Gibco LifeTechnologies, CA) supplemented with 10% dialyzed FBS. Following 18-h incubation with tetracycline, the cells were loaded with […] Ca^2+-sensitive fluorescent dye Fluo-4/AM (Molecular Probes) in Hanks' balanced saline solution (HBSS, Gibco LifeTechnologies, CA) with […] Hepes (Sigma) and 2.5 mM probenecid (Sigma), for 1 h at 37° C. The cells were washed three times with HBSS to remove extracellular dye. Fluorescence signals were measured by using the fluorescence microplate reader Flexstation III (Molecular Devices) at sampling intervals of 1.5 s for 60 s.
The antagonist potency was determined using the EC80 of the quisqualate used as agonist and the potentiation of mGlu5 activation was determined using the EC20 of the agonist (quisqualate or glutamate). The compounds were applied 10 minutes before the application of the agonist.
The negative allosteric modulator activity (expressed as IC50) and the positive allosteric modulator activity (expressed as EC50) of the compounds of the invention for the mGlu5 receptors is between 0.1 and 1000 nM.

The target of data set [2] is T1, human mGlu5 receptor. The data set is described as follows: Fold shift of agonist curve determination. The data set is classed as cell-based. The settings on record: ratio of EC50 agonist (quisqualate or glutamate) curves in presence and in absence of test compound; compound at 1 μM.
Source text: as §1, §2
The PAM potency was evaluated by performing an agonist concentration response curve in the presence of the compounds. The compounds at fixed concentration (0.01 or 0.1 or 1 μM) were applied 10 minutes before the incubation of the agonist (quisqualate or glutamate) dose-response curve. The fold shift was determined as ratio of EC50 agonist curves in presence and in absence of test compound. For instance, and in particular compound 34 has a fold shift of 2.7.

One may read the Ki as the equilibrium dissociation constant of an inhibitor or competing ligand from its target. As usually defined, the EC50 is the concentration at which the effect is half-maximal.

T1 sequence (P41594 21-1212): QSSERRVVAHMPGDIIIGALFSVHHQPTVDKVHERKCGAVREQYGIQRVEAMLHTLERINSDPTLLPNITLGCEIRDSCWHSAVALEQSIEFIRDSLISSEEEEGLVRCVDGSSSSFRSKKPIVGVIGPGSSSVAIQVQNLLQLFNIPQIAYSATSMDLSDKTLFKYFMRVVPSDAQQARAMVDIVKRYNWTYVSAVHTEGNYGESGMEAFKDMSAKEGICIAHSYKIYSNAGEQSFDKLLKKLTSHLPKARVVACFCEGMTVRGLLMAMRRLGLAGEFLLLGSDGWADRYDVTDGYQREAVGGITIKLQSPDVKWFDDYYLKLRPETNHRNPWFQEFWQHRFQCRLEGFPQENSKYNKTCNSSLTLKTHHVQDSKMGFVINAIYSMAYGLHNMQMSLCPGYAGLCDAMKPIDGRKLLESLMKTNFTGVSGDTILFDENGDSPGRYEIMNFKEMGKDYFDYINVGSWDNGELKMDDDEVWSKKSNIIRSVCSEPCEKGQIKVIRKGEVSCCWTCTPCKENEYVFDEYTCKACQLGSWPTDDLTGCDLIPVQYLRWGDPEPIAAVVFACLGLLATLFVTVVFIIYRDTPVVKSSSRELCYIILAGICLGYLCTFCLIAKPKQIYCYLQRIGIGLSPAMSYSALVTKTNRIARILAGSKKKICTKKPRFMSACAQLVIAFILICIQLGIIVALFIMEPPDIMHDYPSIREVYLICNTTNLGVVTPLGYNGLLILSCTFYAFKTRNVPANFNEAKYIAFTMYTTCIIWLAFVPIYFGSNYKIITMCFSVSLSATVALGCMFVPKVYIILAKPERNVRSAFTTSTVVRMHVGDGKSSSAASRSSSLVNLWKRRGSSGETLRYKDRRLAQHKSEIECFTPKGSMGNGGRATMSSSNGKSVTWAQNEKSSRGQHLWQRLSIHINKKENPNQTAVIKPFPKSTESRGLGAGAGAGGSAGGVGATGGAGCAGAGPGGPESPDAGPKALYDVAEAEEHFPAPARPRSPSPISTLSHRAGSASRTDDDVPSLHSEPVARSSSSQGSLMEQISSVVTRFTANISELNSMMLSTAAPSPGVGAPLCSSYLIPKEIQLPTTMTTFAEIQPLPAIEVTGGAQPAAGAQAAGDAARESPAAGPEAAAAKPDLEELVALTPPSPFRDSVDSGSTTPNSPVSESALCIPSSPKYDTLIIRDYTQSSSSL
Chain of human mGluR5 receptor (P41594 21-1212): as above

For `CC1(C)CN(C(=O)c2cccc(Cl)c2)CC/C1=C\C#Cc1cccc(C#N)c1` [Example 116, 3-{(3E)-3-[1-(3-chlorobenzoyl)-3,3-dimethylpiperidin-4-ylidene]prop-1-yn-1-yl}benzonitrile], at human mGluR5 receptor, the Ki is 1.6 nM. Further, the concentration for a half-maximal effect (EC50) at human mGlu5 receptor [1] was found to be 52.8 nM. Further, on human mGlu5 receptor [2], the “mGlu5 Fold Shift @1 μM” value is 2.14.

Consider `CCOC(=O)N1CC/C(=C\C#Cc2cc(F)ccc2F)C(C)(C)C1` [Example 19, ethyl (4E)-4-[3-(2,5-difluorophenyl)prop-2-yn-1-ylidene]-3,3-dimethylpiperidine-1-carboxylate], for which the Ki on human mGluR5 receptor was 0.89 nM.

On to `CC1(C)CN(C(=O)c2cccc(Cl)c2)CC/C1=C\C#Cc1cccc(O)c1` [Example 191, (3-chlorophenyl){(4E)-4-[3-(3-hydroxyphenyl)prop-2-yn-1-ylidene]-3,3-dimethylpiperidin-1-yl}methanone], for which the inhibitory constant (Ki) at human mGluR5 receptor was 7.35 nM. The EC50 on human mGlu5 receptor [1] came out at 224 nM. Moreover, on human mGlu5 receptor [2], the “mGlu5 Fold Shift @1 μM” value came to 3.9.

`O=C(c1cccc(Cl)c1)N1CC/C(=C\C#Cc2cccc(Cl)c2)C(F)(F)C1` [Example 201, (3-chlorophenyl){(4E)-4-[3-(3-chlorophenyl)prop-2-yn-1-ylidene]-3,3-difluoropiperidin-1-yl}methanone]: the Ki on human mGluR5 receptor worked out at 1.91 nM. Further, the EC50 at human mGlu5 receptor [1] came to 88.2 nM. Moreover, at human mGlu5 receptor [2], the “mGlu5 Fold Shift @1 μM” value is reported as 4.5.

On to `CC1(C)CN(C(=O)c2cccc(O)c2)CC/C1=C\C#Cc1cccc(Cl)c1` [Example 126, {(4E)-4-[3-(3-chlorophenyl)prop-2-yn-1-ylidene]-3,3-dimethylpiperidin-1-yl}(3-hydroxyphenyl)methanone], for which the EC50 at human mGlu5 receptor [1] turned out to be 115 nM. Moreover, the “mGlu5 Fold Shift @1 μM” value on human mGlu5 receptor [2] amounted to 3.4.

In the case of `COc1cccc(C(=O)N2CC/C(=C\C#Cc3cccc(C#N)c3)C(C)(C)C2)c1` [Example 196, 3-{(3E)-3-[1-(3-methoxybenzoyl)-3,3-dimethylpiperidin-4-ylidene]prop-1-yn-1-yl}benzonitrile], the EC50 at human mGlu5 receptor [1] is 87.7 nM. In addition, the “mGlu5 Fold Shift @1 μM” value at human mGlu5 receptor [2] was found to be 2.2.

Regarding `COc1cc(OC)nc(C(=O)N2CC/C(=C\C#Cc3cccc(Cl)c3)C(C)(C)C2)n1` [Example 166, {(4E)-4-[3-(3-chlorophenyl)prop-2-yn-1-ylidene]-3,3-dimethylpiperidin-1-yl}(4,6-dimethoxypyrimidin-2-yl)methanone], the “mGlu5 Fold Shift @1 μM” value on human mGlu5 receptor [2] amounted to 1.35.

For `Cc1cccc(C(=O)N2CC/C(=C\C#Cc3cccc(Cl)c3)C(C)(C)C2)n1` [Example 128, {(4E)-4-[3-(3-chlorophenyl)prop-2-yn-1-ylidene]-3,3-dimethylpiperidin-1-yl}(6-methylpyridin-2-yl)methanone], the Ki on human mGluR5 receptor came out at 1.82 nM. Also, the EC50 at human mGlu5 receptor [1] came out at 165 nM. Further, at human mGlu5 receptor [2], the “mGlu5 Fold Shift @1 μM” value was 3.5.

Regarding `CCOC(=O)N1CC/C(=C\C#Cc2cccc(C)n2)C(C)(C)C1` [Example 3, ethyl (4E)-3,3-dimethyl-4-[3-(6-methylpyridin-2-yl)prop-2-yn-1-ylidene]piperidine-1-carboxylate], on human mGluR5 receptor, the Ki was found to be 1.47 nM.

As to `COC(=O)N1CC/C(=C\C#Cc2nccc(C)n2)C1(C)C` [Example 64, methyl (3E)-2,2-dimethyl-3-[3-(4-methylpyrimidin-2-yl)prop-2-yn-1-ylidene]pyrrolidine-1-carboxylate], at human mGluR5 receptor, the Ki came to 82.9 nM.

As to `Cc1cc(C(=O)N2CC/C(=C\C#Cc3cc(F)cc(C#N)c3)C(C)(C)C2)c(C)o1` [Example 200, 3-[(3E)-3-{1-[(2,5-dimethylfuran-3-yl)carbonyl]-3,3-dimethylpiperidin-4-ylidene}prop-1-yn-1-yl]-5-fluorobenzonitrile], the Ki at human mGluR5 receptor worked out at 637 nM. In addition, the EC50 on human mGlu5 receptor [1] came to 291 nM. Also, the “mGlu5 Fold Shift @1 μM” value on human mGlu5 receptor [2] is listed as 2.3.

On to `CC1(C)CN(C(=O)c2cccc(Cl)c2)CC/C1=C\C#Cc1cccc(CO)c1` [Example 119, (3-chlorophenyl){(4E)-4-{3-[3-(hydroxymethyl)phenyl]prop-2-yn-1-ylidene}-3,3-dimethylpiperidin-1-yl]methanone], for which, at human mGluR5 receptor, the Ki worked out at 8.05 nM. Moreover, the EC50 at human mGlu5 receptor [1] came out at 49.7 nM. Moreover, the “mGlu5 Fold Shift @1 μM” value on human mGlu5 receptor [2] was 2.9.

Consider `Cc1cc(C(=O)N2CC/C(=C\C#Cc3cccc(CO)c3)C(C)(C)C2)c(C)o1` [Example 46, (2,5-dimethylfuran-3-yl)[(4E)-4-{3-[3-(hydroxymethyl)phenyl]prop-2-yn-1-ylidene}-3,3-dimethylpiperidin-1-yl]methanone], for which the Ki at human mGluR5 receptor was 323 nM. Further, the EC50 at human mGlu5 receptor [1] came to 37.4 nM. At human mGlu5 receptor [2], the “mGlu5 Fold Shift @1 μM” value stood at 3.79.

For `CCOC(=O)N1CC/C(=C\C#Cc2cc(Cl)ccn2)C(C)(C)C1` [Example 18, ethyl (4E)-4-[3-(4-chloropyridin-2-yl)prop-2-yn-1-ylidene]-3,3-dimethylpiperidine-1-carboxylate], at human mGluR5 receptor, the inhibitory constant (Ki) turned out to be 1.01 nM.

In the case of `COc1cccc(C(=O)N2CC/C(=C\C#Cc3cccc(Cl)c3)C(C)(C)C2)c1` [Example 137, {(4E)-4-[3-(3-chlorophenyl)prop-2-yn-1-ylidene]-3,3-dimethylpiperidin-1-yl}(3-methoxyphenyl)methanone], at human mGlu5 receptor [1], the EC50 was 268 nM. The “mGlu5 Fold Shift @1 μM” value on human mGlu5 receptor [2] was 2.1.

Regarding `CCn1nc(C)c(C(=O)N2CC/C(=C\C#Cc3cccc(Cl)c3)C(C)(C)C2)n1` [Example 167, {(4E)-4-[3-(3-chlorophenyl)prop-2-yn-1-ylidene]-3,3-dimethylpiperidin-1-yl}(2-ethyl-5-methyl-2H-1,2,3-triazol-4-yl)methanone], at human mGluR5 receptor, the Ki is 2.42 nM. On human mGlu5 receptor [1], the EC50 is 23 nM. The “mGlu5 Fold Shift @1 μM” value at human mGlu5 receptor [2] was determined as 2.7.

As for `Cc1cccc(C(=O)N2CC/C(=C\C#Cc3cccc(Cl)c3)C(C)(C)C2)c1` [Example 43, {(4E)-4-[3-(3-chlorophenyl)prop-2-yn-1-ylidene]-3,3-dimethylpiperidin-1-yl}(3-methylphenyl)methanone], the Ki at human mGluR5 receptor was found to be 7.39 nM. In addition, the EC50 on human mGlu5 receptor [1] worked out at 64.5 nM. Further, on human mGlu5 receptor [2], the “mGlu5 Fold Shift @1 μM” value is listed as 2.8.

Take `CC1(C)CN(C(=O)c2cccc(Cl)c2)CC/C1=C\C#Cc1ccc(F)cc1` [Example 120, (3-chlorophenyl){(4E)-4-[3-(4-fluorophenyl)prop-2-yn-1-ylidene]-3,3-dimethylpiperidin-1-yl}methanone]: the Ki on human mGluR5 receptor came to 4.02 nM. The EC50 at human mGlu5 receptor [1] was 38.6 nM. Besides, at human mGlu5 receptor [2], the “mGlu5 Fold Shift @1 μM” value came to 5.5.

In the case of `CC1(C)CN(C(=O)c2cccc(Cl)c2)CC/C1=C\c1cc(-c2cccc(Cl)c2)[nH]n1` [Example 107, (3-chlorophenyl)[(4E)-4-{[5-(3-chlorophenyl)-1H-pyrazol-3-yl]methylidene}-3,3-dimethylpiperidin-1-yl]methanone], on human mGluR5 receptor, the Ki turned out to be 932 nM. In addition, the EC50 on human mGlu5 receptor [1] stood at 121 nM. In addition, the “mGlu5 Fold Shift @1 μM” value on human mGlu5 receptor [2] is 7.66.

For the compound `CCOC(=O)N1CC/C(=C\C#Cc2cc(C#N)ccn2)C1(C)C` [Example 73, ethyl (3E)-3-[3-(4-cyanopyridin-2-yl)prop-2-yn-1-ylidene]-2,2-dimethylpyrrolidine-1-carboxylate], the Ki at human mGluR5 receptor was determined as 29.8 nM.
